Consider 2 compounds from patent publication US20100062065A1, “PHARMACEUTICAL COMPOSITION CONTAINING NAPHTHOQUINONE-BASED COMPOUND FOR INTESTINE DELIVERY SYSTEM” (MAZENCE INC., priority 2006, published 2010).

Where “and” joins values, the source holds several entries; their conditions need not be identical. Equal entries are not always repeated.

The nature of data set [1]: Determination of partition coefficients (octanol / phosphate buffer pH 7.4). The class given is physicochemical. As to conditions: for Partition Coefficient: octanol/phosphate buffer pH 7.4, samples 1-3. How it is done:
Octanol and phosphate buffer (pH 7.4) were saturated with a counter-solvent for 24 hours or more. A given amount of a naphthoquinone-based compound (Compound 1 of Table 1 below) was dissolved in the thus-saturated octanol, mixed with triple-distilled water and stirred using a magnetic stirrer at 200 rpm for 13 hours or more. Samples were taken, filtered through a 0.45 μm RC Membrane filter and diluted with methanol. The diluted sample materials were analyzed by HPLC. A partition coefficient versus an amount of Compound 1 was determined.

Data set [2] is described as follows: Intestinal absorption, single-pass intestinal perfusion. The class given is in vivo, rats. As to the method: In order to determine intestinal absorption (%) of a naphthoquinone-based compound, a single-pass intestinal perfusion technique was carried out in internal organs of rats, including jejunum, ileum and large intestine. The steady-state intestinal effective permeability (Peff) can be expressed according to the following equation. Peff=[−Qin·ln(Cout/Cin)]/A • Peff: Steady-state intestinal effective permeability (cm/s) • Qin: Perfusion flow rate (0.4 mL/min) • Cin, Cout: Inlet and fluid-transport-corrected outlet solution concentrations • A: Mass transfer surface area within intestinal segment (2πrL), • r, L: Radius and length of intestinal segment The radius (r) and length (L) of the jejunum, ileum and large intestine used in experiments are as follows: (r: jejunum, 0.21 cm; ileum, 0.22 cm; large intestine, 0.23 cm, and L: 10 cm) The steady-state was confirmed by the ratio of the outlet to inlet concentrations (Cout/Cin) versus time. The steady-state is established when the Cout/Cin ratio of the naphthoquinone-based compound is maintained at a constant value (n=3, error bars with respect to S.D.). Residual amounts of the naphthoquinone-based compound in the above three intestinal organs were measured at different time points. The outlet steady-state concentration of the compound under perfusion was calculated. The results thus obtained are given in Table 4 and FIG. 2, respectively. The effective permeability was measured at 4 points of each intestinal tissue.

The conditions of data set [3]: orally administered; cited from earlier work.

With `CC1(C)CCC2=C(O1)c1ccccc1C(=O)C2=O` [Compound 1], the “octanol-solubility higher than water-solubility” value in data set [1] was 100 fold. For the same compound, in data set [1] (octanol/phosphate buffer pH 7.4, pH 7.4, average over all amounts and samples, read-out: average partition coefficient), the logD turned out to be 2.3. For the same compound, the “Partition Coefficient” value in data set [1] (100 μg/mL) is 2.17 and 2.02 and 1.99; in data set [1] (200 μg/mL), 2.40 and 2.20 and 2.24; in data set [1] (2000 μg/mL), 2.59 and 2.62 and 2.58; in data set [1] (Excess) it was 2.65 and 2.05 and 2.08. The average partition coefficient result in data set [1] (pH 7.4) is given as “* average partition coefficient: 2.299 (σ = 0.255)”. The “Peff × 10^−5” value in data set [2] (Duodenum) is listed as 0.79 ± 0.33 10^−5 cm/s; in data set [2] (Ileum), 5.15 ± 1.49 10^−5 cm/s; in data set [2] (Jejunum), 2.37 ± 1.17 10^−5 cm/s; in data set [2] (Large intestine), 7.82 ± 0.93 10^−5 cm/s.

Regarding `C[C@H]1COC2=C1C(=O)C(=O)c1c2ccc2c1CCCC2(C)C` [cryptotanshinone], the absorption rate in data set [3] is reported as 2.05%.
